Assay results: patent US12404249B2, “Heterocyclic derivatives and use thereof” (C&C RESEARCH LABORATORIES, priority 2018, dated 2025)

Key:
STAT3 = target: T1, STAT3 (Homo sapiens, UniProt P40763); experiment: STAT3 activation inhibition assay (reporter gene assay, LNcaP stable cell line, IL-6 stimulated); type: cell-based; conditions: LNcaP stable cell line [plasmid STAT3-TA-luc], IL-6 10 ng/mL, 48 hours, luciferase activity; read-out: IC50 (μM) pSTAT3
T1 construct: endogenous in cells; host or cells: LNCaP (human prostate cancer) stably carrying pSTAT3-TA-luc reporter plasmid
T1 sequence (P40763 whole entry): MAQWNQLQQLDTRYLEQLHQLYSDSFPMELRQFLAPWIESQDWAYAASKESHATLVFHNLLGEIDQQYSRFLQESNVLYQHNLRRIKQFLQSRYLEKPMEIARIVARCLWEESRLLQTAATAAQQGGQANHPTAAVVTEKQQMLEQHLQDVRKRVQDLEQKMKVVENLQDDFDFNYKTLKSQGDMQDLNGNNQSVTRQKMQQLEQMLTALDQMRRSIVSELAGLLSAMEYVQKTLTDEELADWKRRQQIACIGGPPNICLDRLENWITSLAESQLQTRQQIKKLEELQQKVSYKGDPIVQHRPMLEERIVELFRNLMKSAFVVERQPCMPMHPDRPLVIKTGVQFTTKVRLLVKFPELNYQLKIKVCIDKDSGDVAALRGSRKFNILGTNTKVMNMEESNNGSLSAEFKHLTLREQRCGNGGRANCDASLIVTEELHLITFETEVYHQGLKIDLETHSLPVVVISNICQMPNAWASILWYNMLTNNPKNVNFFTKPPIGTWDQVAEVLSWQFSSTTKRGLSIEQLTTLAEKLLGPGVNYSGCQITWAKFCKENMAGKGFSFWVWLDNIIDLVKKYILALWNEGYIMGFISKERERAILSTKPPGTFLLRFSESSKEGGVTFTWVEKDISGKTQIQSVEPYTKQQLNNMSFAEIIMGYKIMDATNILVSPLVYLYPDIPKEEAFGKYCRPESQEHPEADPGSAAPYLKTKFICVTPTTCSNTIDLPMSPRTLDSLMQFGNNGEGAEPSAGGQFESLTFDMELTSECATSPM
Description: Cancer cell lines used for evaluating the compounds of the Examples were purchased from ATCC (American Type Culture Collection) or KCLB (Korean Cell Line Bank), and cultured according to the vendor's recommendation. The human prostate cancer cell line stably expressing the STAT3 promoter (LNcaP stable cell line [plasmid STAT3-TA-luc])—which was prepared to evaluate the inhibitory effect of the compounds of the Examples against dimerization of STAT3—was cultured in RPMI1640 (Cat no. 11875, Gibco), 10% fetal bovine serum (Cat no. SH30071.03, Hyclone) and 150 μg/mL G418 solution (Cat no. 04 727 894 001, Roche).
The reporter gene assay of LNcap stable cell line was carried out by the use of RPMI 1640 medium containing 3% DCC-FBS (without G-418). The cell line was dispensed into two (2) white 96-well plates at 30,000 cells/well/50 μL. The cell line was incubated for 24 hours under the condition of 37° C. and 5% CO2, and then the Example compounds of 50 mM DMSO stock were diluted to various concentrations and treated to two (2) white 96-well plates containing cells. Then, IL-6 was treated to a final concentration of 10 ng/mL. After the treatment of Example compounds and IL-6, the cells were cultured for 48 hours under the condition of 37° C. and 5% CO2. After 48 hours, the 96-well plates were observed under a microscope to record the presence or absence of drug precipitation and specificities, and the 96-well plates were kept at room temperature for 30 minutes. Then, in the case of the first 96-well plate, the culture medium on the plate was removed to measure the luciferase activity, and treated with passive lysis buffer at 20 µL/well and shaken for 30 minutes. The luciferase activity was measured on microLUMA LB96P (BERTHOLD) or Centro XS LB 960 (BERTHOLD) instrument using Luciferase assay system (Cat No. E1501, Promega Corporation). In the case of the second 96-well plate, 20 μL of Glo-mix solution was added to measure cytotoxicity by the compounds of the Examples, and the plate was well shaken for 10 minutes and analyzed on microLUMA LB96P (BERTHOLD) instrument using Glo-vial protocol. As a negative control, a 96 well-plate in which culture medium was added but cells were not plated was used. As a positive control, a 96 well-plate in which cells were plated and 0.1% DMSO and culture medium containing stimulation were added was used.
The results of evaluating the inhibitory effects of the compounds of the Examples against dimerization of STAT3 and STAT1 via STAT3 and STAT1 reporter gene assay are represented in Table 1.

[1] = tested on: prostate cancer cell line (LNCap); experiment: Cell growth inhibition assay (Celltiter Glo); type: cell-based; conditions: Homo sapiens, LNCap cells, 120 hours incubation
Description: Cancer cell inhibitory effects by the compounds of the Examples were evaluated as follows. The prostate cancer cell line (LNCap) used was cultured under the condition according to the vendor's recommendation. LNCap was dispensed into a 96-well plate at 10,000 cells/well. After incubation under the condition of 37° C. and 5% CO2 for 24 hours, the Example compounds of 50 mM DMSO stock were diluted to various concentrations and treated to the 96-well plate containing cells. After treatment of the Example compounds, LNCap cells were incubated in an incubator (37° C., 5% CO2) for 120 hours. After each incubation time, the 96-well plate was observed under a microscope to record the presence or absence of drug precipitation and specificities, and the 96-well plate was kept at room temperature for 30 minutes. Then, after addition of 20 μL of Celltiter Glo solution, the 96-well plate was well shaken for 30 minutes. The growth inhibitory activity was measured on microLUMA LB96P (BERTHOLD) instrument using Glo-vial protocol. As a negative control, a 96 well-plate in which culture medium was added but cells were not plated was used. As a positive control, a 96 well-plate in which cells were plated and 0.1% DMSO instead of drugs was added was used. The results of growth inhibitory effects of the Example compounds on prostate cancer cell line are represented in Table 2.

IC50 (STAT3)	IC50 [1]	SMILES
10.5 µM	5.1 µM	NS(=O)(=O)c1ccc(CCNc2cc(Cl)nc3ccccc23)cc1 [Example 3, 4-(2-((2-chloroquinolin-4-yl)amino)ethyl)benzenesulfonamide]
> 50 µM	> 50 µM	O=[N+]([O-])c1ccc(CCNc2nc(Cl)nc3[nH]cnc23)cc1 [Example 47, 2-chloro-N-(4-nitrophenethyl)-9H-purin-6-amine]
0.74 µM	0.71 µM	CS(=O)(=O)Nc1ccc(CCNc2ncnc3ccsc23)cc1 [Example 66, N-(4-(2-(thieno[3,2-d]pyrimidin-4-ylamino)ethyl)phenyl)methanesulfonamide]
7.8 µM	16 µM	CCc1cccc2c(NCCc3ccc([N+](=O)[O-])cc3)cc(Cl)nc12 [Example 8, 2-chloro-8-ethyl-N-(4-nitrophenethyl)quinolin-4-amine]
1.2 µM	3.9 µM	COc1cc(NCCc2ccc(NS(C)(=O)=O)cc2)c2ccccc2n1 [Example 76, N-(4-(2-((2-methoxyquinolin-4-yl)amino)ethyl)phenyl)methanesulfonamide]
3.8 µM	10.8 µM	CS(=O)(=O)Nc1ccc(CCNc2ncnc3[nH]ccc23)cc1 [Example 70, N-(4-(2-((7H-pyrrolo[2,3-d]pyrimidin-4-yl)amino)ethyl)phenyl)methanesulfonamide]
20.3 µM	10.6 µM	CCOC(=O)COc1ccc2nc(Cl)cc(NCCc3ccc([N+](=O)[O-])cc3)c2c1 [Example 37, ethyl 2-((2-chloro-4-((4-nitrophenethyl)amino)quinolin-6-yl)oxy)acetate]
2.3 µM	7.3 µM	O=[N+]([O-])c1ccc(CCNc2cc(Cl)nc3ccc(O)cc23)cc1 [Example 35, 2-chloro-4-((4-nitrophenethyl)amino)quinolin-6-ol]
> 50 µM	> 50 µM	CS(=O)(=O)Nc1ccc(CNC(=O)c2cc(Cl)nc3ccccc23)cc1 [Example 58, 2-chloro-N-(4-(methylsulfonamido)benzyl)quinolin-4-carboxamide]
0.75 µM	0.74 µM	O=Nc1ccc(CCNc2cc(Cl)nc3ccccc23)cc1 [Example 20, 2-chloro-N-(4-nitrosophenethyl)quinolin-4-amine]
0.17 µM	0.18 µM	CS(=O)(=O)Nc1ccc(CCNc2ncnc3ccccc23)cc1 [Example 38, N-(4-(2-(quinazolin-4-ylamino)ethyl)phenyl)methanesulfonamide]
6.6 µM	13.9 µM	CS(=O)(=O)Nc1ccc(CCNc2ncnc3ccc(-c4ccc(Cl)cc4Cl)cc23)cc1 [Example 56, N-(4-(2-((6-(2,4-dichlorophenyl)quinazolin-4-yl)amino)ethyl)phenyl)methanesulfonamide]
12.1 µM	23.5 µM	O=[N+]([O-])c1ccc(CCNc2cncc3ccccc23)cc1 [Example 62, N-(4-nitrophenethyl)isoquinolin-4-amine]
7.3 µM	14.2 µM	O=[N+]([O-])c1ccc(CCNc2nc(C(F)(F)F)nc3ccccc23)cc1 [Example 48, N-(4-nitrophenethyl)-2-(trifluoromethyl)quinazolin-4-amine]
13.1 µM	13.1 µM	CS(=O)(=O)Nc1ccc(CCNc2cc(Cl)nc3c(F)cccc23)cc1 [Example 45, N-(4-(2-((2-chloro-8-fluoroquinolin-4-yl)amino)ethyl)phenyl)methanesulfonamide]
3.1 µM	2.5 µM	O=[N+]([O-])c1ccc(CCNc2cc(Cl)nc3cccc(OC(F)(F)F)c23)cc1 [Example 13, 2-chloro-N-(4-nitrophenethyl)-5-(trifluoromethoxy)quinolin-4-amine]
3.3 µM	33.8 µM	O=[N+]([O-])c1ccc(CCNc2cc(Cl)nc3ccc(Cl)cc23)cc1 [Example 32, 2,6-dichloro-N-(4-nitrophenethyl)quinolin-4-amine]
